Each block holds one compound with its values, some of them ahead of it.
Legend:
[1] = target: c-Raf-1 (Homo sapiens, UniProt P04049); assay: c-Raf-1 kinase activity assay (AlphaScreen, biotin-MEK1 substrate); conditions: 100 μM ATP, 100 nM biotin-MEK1, 45 minutes at room temperature; read-out: Biochemical activity (IC50 μM) c-Raf-1
Method: (§1) Assays for biochemical and cell based activity are known in the art, for example, as described in PCT publication WO 2007/002433, the disclosure of which is hereby incorporated by reference as it relates to such assays. For example, the biochemical activity IC50 values are determined with respect to inhibition of B-Raf kinase activity, c-Raf-1 kinase activity, or B-Raf V600E kinase activity, where inhibition of phosphorylation of a peptide substrate is measured as a function of compound concentration. Compounds to be tested are diluted in dimethyl sulfoxide to a concentration of 0.1 mM. These are serially diluted 15 μL into 30 μL of dimethyl sulfoxide seven times in 96 well plates for a total of 8 dilution points, and for each dilution point 1 μL is added to a well of an assay plate. Plates are prepared such that each well in a 384 well plate contains 1 μL of compound in 10 μL, volume with 0.1 ng Raf enzyme (i.e. any of B-Raf, c-Raf-1 or B-Raf V600E, Upstate Biotechnology or prepared by methods known to one of skill in the art), 50 mM HEPES, pH 7.0, 50 mM NaCl, 2 mM MgCl2, 1 mM MnCl2, 0.01% Tween-20, 1 mM DTT, and 100 nM biotin-MEK1 as substrate. The reaction is started with addition of 10 μL of 200 μM ATP (i.e. final 100 μM ATP). After incubation of the kinase reaction for 45 minutes at room temperature, 5 μL/well of Stop Solution is added (25 mM Hepes pH 7.5, 100 mM EDTA, 0.01% BSA with donor beads (Streptavidin coated beads, Perkin Elmer), acceptor beads (Protein A coated, Perkin Elmer), and anti phosphor MEK1/2 antibody (CellSignal), each at final concentration 10 μg/mL). The plates are incubated for 3 hours at room temperature and read on Envision reader (Perkin Elmer). Phosphorylation of Mek1 results in binding of the anti-phosphor-MEK1/2 antibody and association of the donor and acceptor beads such that signal correlates with kinase activity. The signal vs. compound concentration is used to determine the IC50.

[2] = target: B-Raf V600E (Homo sapiens, UniProt P15056, V600E); assay: B-Raf V600E kinase activity assay (AlphaScreen, biotin-MEK1 substrate); conditions: 100 μM ATP, 100 nM biotin-MEK1, 45 minutes at room temperature, read-out: Biochemical activity (IC50 μM) V600E
Method: as §1

[3] = target: B-Raf (Homo sapiens, UniProt P15056); assay: B-Raf kinase activity assay (AlphaScreen, biotin-MEK1 substrate); conditions: 100 μM ATP, 100 nM biotin-MEK1, 45 minutes at room temperature; read-out: Biochemical activity (IC50 μM) B-Raf
Method: as §1

[4] = Relative solubility by turbidity in aqueous buffers (pH 1.5, 4.5, 6.8, 7.4); type: physicochemical; conditions: for turbidity threshold (L, M, H) 1.4: pH 1.5 buffer (SGF); for turbidity threshold (L, M, H) 4.5: pH 4.5 buffer (SIF); for turbidity threshold (L, M, H) 6.8: pH 6.8 buffer (SIF); for turbidity threshold (L, M, H) 7.4: pH 7.4 buffer (HEPES)
Method: As an indication of relative solubility, the turbidity of compounds in aqueous solutions is assessed. To assess possible compound properties in different physiological compartments, such as stomach, intestine, and blood, a series of aqueous buffers with varying pH is used. Thus each compound is diluted into four different physiologically relevant buffers and solution turbidity is measured by spectrophotometry.
Compounds are dissolved at a concentration of 25 mM in dimethyl sulfoxide, then serially diluted 1:1 into a 96 well plate, diluting 10 times in pure dimethyl sulfoxide, with the final well of each row a dimethyl sulfoxide blank. In an assay plate, 99 μL of appropriate buffer is added to each well, and 1 μL of each sample dilution is added to the buffer, achieving a range of final total concentrations in aqueous solutions having different pH. The buffers used are Simulated Gastric Fluid (SGF-pH 1.5) 0.5M NaCl, pH 1.5; Simulated Intestinal fluid (SIF-pH 4.5 and pH 6.8) 0.05M NaH2PO4, pH 4.5 and 6.8; and Hepes Buffer (HEPES-pH 7.4) 10 mM HEPES, 150 mM NaCl, pH 7.4. Control compounds pyrene, estriol and propranolol HCl are also assessed. Plates are spun and then mixed for 1 minute, and the absorbance is read using a Tecan Safire II to read wavelengths in the visible range (490, 535, and 650 nm) at four locations per well, reflecting the degree of turbidity present. The average optical density for each wavelength in each well is graphed vs. compound concentration, and the concentration at which the curve crosses a threshold O.D. of 0.01 for each wavelength is reported as the endpoint turbidity assay result. The average of the three wavelengths is used to compare turbidity of compounds. Compounds are considered to have low solubility if the threshold concentration is <31.3 μM, moderate solubility if the threshold concentration is 31.3 μM to 250 μM, and high solubility if the threshold concentration is >250 μM.
The following table indicates the relative solubility (L=low, M=moderate, H=high) based on turbidity threshold concentration at each pH for exemplary compounds according to the invention: […]

B-Raf V600E, sequence (P15056 whole entry V600E): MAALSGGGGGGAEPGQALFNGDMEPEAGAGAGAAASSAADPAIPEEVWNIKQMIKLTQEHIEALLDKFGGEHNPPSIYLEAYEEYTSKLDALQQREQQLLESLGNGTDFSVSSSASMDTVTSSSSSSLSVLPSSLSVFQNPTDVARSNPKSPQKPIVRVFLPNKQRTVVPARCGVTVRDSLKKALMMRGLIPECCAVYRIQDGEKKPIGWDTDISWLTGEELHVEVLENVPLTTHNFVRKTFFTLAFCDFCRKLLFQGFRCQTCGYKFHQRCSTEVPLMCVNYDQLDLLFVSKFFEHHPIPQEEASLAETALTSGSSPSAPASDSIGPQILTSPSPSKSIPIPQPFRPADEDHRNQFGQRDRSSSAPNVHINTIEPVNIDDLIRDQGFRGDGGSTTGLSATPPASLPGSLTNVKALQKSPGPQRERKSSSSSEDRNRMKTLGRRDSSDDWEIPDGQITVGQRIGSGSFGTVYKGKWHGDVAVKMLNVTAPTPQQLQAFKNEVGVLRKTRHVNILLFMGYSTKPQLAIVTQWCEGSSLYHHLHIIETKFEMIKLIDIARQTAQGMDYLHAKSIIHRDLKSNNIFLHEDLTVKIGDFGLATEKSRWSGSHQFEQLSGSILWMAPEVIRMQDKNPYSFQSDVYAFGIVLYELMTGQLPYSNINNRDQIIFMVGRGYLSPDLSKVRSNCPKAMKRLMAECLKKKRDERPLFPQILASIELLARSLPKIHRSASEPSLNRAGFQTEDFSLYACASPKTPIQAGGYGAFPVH
B-Raf, sequence (P15056 whole entry): as the sequence (P15056 whole entry V600E) above, with E600V counted along it
c-Raf-1, sequence (P04049 whole entry Y340D/Y341D, form open): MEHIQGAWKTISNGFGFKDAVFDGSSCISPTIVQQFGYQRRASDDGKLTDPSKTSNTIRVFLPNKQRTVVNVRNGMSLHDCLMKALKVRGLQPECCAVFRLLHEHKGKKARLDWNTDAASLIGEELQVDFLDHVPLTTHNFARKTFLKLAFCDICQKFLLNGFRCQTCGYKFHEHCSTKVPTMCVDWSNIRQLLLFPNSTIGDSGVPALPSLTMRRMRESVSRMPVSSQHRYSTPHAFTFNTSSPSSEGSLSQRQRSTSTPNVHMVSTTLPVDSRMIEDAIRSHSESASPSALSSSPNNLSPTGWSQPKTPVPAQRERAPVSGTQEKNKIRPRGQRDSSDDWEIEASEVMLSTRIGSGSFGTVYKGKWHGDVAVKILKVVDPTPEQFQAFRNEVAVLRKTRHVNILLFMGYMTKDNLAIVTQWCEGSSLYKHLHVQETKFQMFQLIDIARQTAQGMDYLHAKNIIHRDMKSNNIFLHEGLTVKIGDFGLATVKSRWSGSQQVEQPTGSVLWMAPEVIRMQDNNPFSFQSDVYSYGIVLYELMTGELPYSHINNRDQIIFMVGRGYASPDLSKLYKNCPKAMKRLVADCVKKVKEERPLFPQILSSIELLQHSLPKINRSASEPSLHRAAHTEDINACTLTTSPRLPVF

IC50 [1]: < 0.1 µM
IC50 [2]: < 0.1 µM
IC50 [3]: < 0.1 µM
Structure (SMILES): O=C(c1c(F)ccc(NS(=O)(=O)c2cc(F)ccc2F)c1F)c1c[nH]c2ncc(-c3cncnc3)cc12 [P-1500, N-[2,4-Difluoro-3-(5-pyrimidin-5-yl-1H-pyrrolo[2,3-b]pyridine-3-carbonyl)-phenyl]-2,5-difluoro-benzenesulfonamide]

Structure (SMILES): CCCS(=O)(=O)Nc1ccc(F)c(C(=O)c2c[nH]c3ncc(-c4cnc(NC5CC5)nc4)cc23)c1F [P-1504, Propane-1-sulfonic acid {3-[5-(2-cyclopropylamino-pyrimidin-5-yl)-1H-pyrrolo[2,3-b]pyridine-3-carbonyl]-2,4-difluoro-phenyl}-amide]
turbidity threshold (L, M, H) 1.4 [4]: L (low solubility if the threshold concentration is <31.3 μM)
turbidity threshold (L, M, H) 4.5 [4]: M (moderate solubility if the threshold concentration is 31.3 μM to 250 μM)
turbidity threshold (L, M, H) 6.8 [4]: M (moderate solubility if the threshold concentration is 31.3 μM to 250 μM)
turbidity threshold (L, M, H) 7.4 [4]: M (moderate solubility if the threshold concentration is 31.3 μM to 250 μM)

Structure (SMILES): CCCS(=O)(=O)Nc1ccc(F)c(C(=O)c2c[nH]c3ncc(-c4cnc(NCCCOC)nc4)cc23)c1F [P-1516, Propane-1-sulfonic acid (2,4-difluoro-3-{5-[2-(3-methoxy-propylamino)-pyrimidin-5-yl]-1H-pyrrolo[2,3-b]pyridine-3-carbonyl}-phenyl)-amide]
turbidity threshold (L, M, H) 1.4 [4]: L (low solubility if the threshold concentration is <31.3 μM)
turbidity threshold (L, M, H) 4.5 [4]: L (low solubility if the threshold concentration is <31.3 μM)
turbidity threshold (L, M, H) 6.8 [4]: L (low solubility if the threshold concentration is <31.3 μM)
turbidity threshold (L, M, H) 7.4 [4]: L (low solubility if the threshold concentration is <31.3 μM)

IC50 [2]: < 10 µM
IC50 [3]: < 0.1 µM
Structure (SMILES): CC(C)(C)OC(=O)N1CCC(n2cc(-c3cnc4[nH]cc(C(=O)c5c(F)ccc(NS(=O)(=O)c6ccc(C(F)(F)F)cc6)c5F)c4c3)cn2)CC1 [P-1003, 4-(4-{3-[2,6-Difluoro-3-(4-trifluoromethyl-benzenesulfonylamino)-benzoyl]-1H-pyrrolo[2,3-b]pyridin-5-yl}-pyrazol-1-yl)-piperidine-1-carboxylic acid tert-butyl ester]

Structure (SMILES): CCCS(=O)(=O)Nc1ccc(F)c(C(=O)c2c[nH]c3ncc(-c4cnc(NCCN(C)C)nc4)cc23)c1F [P-1515, Propane-1-sulfonic acid (3-{5-[2-(2-dimethylamino-ethylamino)-pyrimidin-5-yl]-1H-pyrrolo[2,3-b]pyridine-3-carbonyl}-2,4-difluoro-phenyl)-amide]
turbidity threshold (L, M, H) 1.4 [4]: L (low solubility if the threshold concentration is <31.3 μM)
turbidity threshold (L, M, H) 4.5 [4]: M (moderate solubility if the threshold concentration is 31.3 μM to 250 μM)
turbidity threshold (L, M, H) 6.8 [4]: M (moderate solubility if the threshold concentration is 31.3 μM to 250 μM)
turbidity threshold (L, M, H) 7.4 [4]: M (moderate solubility if the threshold concentration is 31.3 μM to 250 μM)

Structure (SMILES): CCCS(=O)(=O)Nc1ccc(F)c(C(=O)c2c[nH]c3ncc(-c4cnc(N5CCC5)nc4)cc23)c1F [P-1512, Propane-1-sulfonic acid {3-[5-(2-azetidin-1-yl-pyrimidin-5-yl)-1H-pyrrolo[2,3-b]pyridine-3-carbonyl]-2,4-difluoro-phenyl}-amide]
turbidity threshold (L, M, H) 1.4 [4]: L (low solubility if the threshold concentration is <31.3 μM)
turbidity threshold (L, M, H) 4.5 [4]: L (low solubility if the threshold concentration is <31.3 μM)
turbidity threshold (L, M, H) 6.8 [4]: L (low solubility if the threshold concentration is <31.3 μM)
turbidity threshold (L, M, H) 7.4 [4]: L (low solubility if the threshold concentration is <31.3 μM)

Structure (SMILES): CCCS(=O)(=O)Nc1ccc(F)c(C(=O)c2c[nH]c3ncc(-c4ccc5c(cnn5C)c4)cc23)c1F [P-0028, Propane-1-sulfonic acid {2,4-difluoro-3-[5-(1-methyl-1H-indazol-5-yl)-1H-pyrrolo[2,3-b]pyridine-3-carbonyl]-phenyl}-amide]
turbidity threshold (L, M, H) 1.4 [4]: L (low solubility if the threshold concentration is <31.3 μM)
turbidity threshold (L, M, H) 4.5 [4]: L (low solubility if the threshold concentration is <31.3 μM)
turbidity threshold (L, M, H) 6.8 [4]: L (low solubility if the threshold concentration is <31.3 μM)
turbidity threshold (L, M, H) 7.4 [4]: L (low solubility if the threshold concentration is <31.3 μM)

Structure (SMILES): COCCNc1ncc(-c2cnc3[nH]cc(C(=O)c4c(F)ccc(NS(=O)(=O)c5cc(F)ccc5F)c4F)c3c2)cn1 [P-1507, N-(2,4-Difluoro-3-{5-[2-(2-methoxy-ethylamino)-pyrimidin-5-yl]-1H-pyrrolo[2,3-b]pyridine-3-carbonyl}-phenyl)-2,5-difluoro-benzenesulfonamide]
turbidity threshold (L, M, H) 1.4 [4]: L (low solubility if the threshold concentration is <31.3 μM)
turbidity threshold (L, M, H) 4.5 [4]: L (low solubility if the threshold concentration is <31.3 μM)
turbidity threshold (L, M, H) 6.8 [4]: L (low solubility if the threshold concentration is <31.3 μM)
turbidity threshold (L, M, H) 7.4 [4]: L (low solubility if the threshold concentration is <31.3 μM)

Structure (SMILES): CCCS(=O)(=O)Nc1ccc(F)c(C(=O)c2c[nH]c3ncc(-c4cnc(NCCOC)nc4)cc23)c1F [P-1505, Propane-1-sulfonic acid (2,4-difluoro-3-{5-[2-(2-methoxy-ethylamino)-pyrimidin-5-yl]-1H-pyrrolo[2,3-b]pyridine-3-carbonyl}-phenyl)-amide]
turbidity threshold (L, M, H) 1.4 [4]: L (low solubility if the threshold concentration is <31.3 μM)
turbidity threshold (L, M, H) 4.5 [4]: L (low solubility if the threshold concentration is <31.3 μM)
turbidity threshold (L, M, H) 6.8 [4]: L (low solubility if the threshold concentration is <31.3 μM)
turbidity threshold (L, M, H) 7.4 [4]: M (moderate solubility if the threshold concentration is 31.3 μM to 250 μM)

Structure (SMILES): CCCS(=O)(=O)Nc1ccc(F)c(C(=O)c2c[nH]c3ncc(-c4ccc5cnn(C)c5c4)cc23)c1F [P-0027, Propane-1-sulfonic acid {2,4-difluoro-3-[5-(1-methyl-1H-indazol-6-yl)-1H-pyrrolo[2,3-b]pyridine-3-carbonyl]-phenyl}-amide]
turbidity threshold (L, M, H) 1.4 [4]: L (low solubility if the threshold concentration is <31.3 μM)
turbidity threshold (L, M, H) 4.5 [4]: L (low solubility if the threshold concentration is <31.3 μM)
turbidity threshold (L, M, H) 6.8 [4]: L (low solubility if the threshold concentration is <31.3 μM)
turbidity threshold (L, M, H) 7.4 [4]: L (low solubility if the threshold concentration is <31.3 μM)

Structure (SMILES): CCCS(=O)(=O)Nc1ccc(F)c(C(=O)c2c[nH]c3ncc(-c4cnc(NC)nc4)cc23)c1F [P-1514, Propane-1-sulfonic acid {2,4-difluoro-3-[5-(2-methylamino-pyrimidin-5-yl)-1H-pyrrolo[2,3-b]pyridine-3-carbonyl]-phenyl}-amide]
turbidity threshold (L, M, H) 1.4 [4]: L (low solubility if the threshold concentration is <31.3 μM)
turbidity threshold (L, M, H) 4.5 [4]: L (low solubility if the threshold concentration is <31.3 μM)
turbidity threshold (L, M, H) 6.8 [4]: M (moderate solubility if the threshold concentration is 31.3 μM to 250 μM)
turbidity threshold (L, M, H) 7.4 [4]: L (low solubility if the threshold concentration is <31.3 μM)

— US9440969B2, “Compounds and methods for kinase modulation, and indications therefor” (PLEXXIKON INC., priority 2009, dated 2016)
